The source of these data is patent US11554126B2, “Methods of treating residual lesions of vascular anomalies” (Georgetown University, priority 2017, dated 2023).

This data set has as its system fibrofatty residua (FFR) from an involuted infantile hemangioma. It counts as in vivo, human. From the text: A child was referred for treatment of an involuted IH. They were concerned about the visual appearance and the feeling of fullness caused by the significant convexity of the tumor. […] Initial measurement was 0.8 cm high and 7.5 cm wide. Management options including surgical excision and laser treatments were discussed. The patient's parent was apprehensive regarding surgery due to the inherent risks of scarring, nerve damage, infection, bleeding, and tissue necrosis.
As an alternative to these options, the present inventors considered administering DCA to the patient to reduce the protuberance of the mass. The associated risks of DCA administration, as well as off-label use, and lack of pediatric approval were discussed with the patient. Two series of injections were planned.
The site was anesthetized with a topical 40% lidocaine ointment. Following prepping with alcohol, an injection grid modified to overlay the affected tissue was applied. Subsequently, 0.2 mL of DCA concentrated to 2 mg/cm^2 was injected at 1 cm intervals using a total of 4.4 mL, followed by the application of ice packs.
As planned, injections were repeated 3 months later, using an additional 4.2 mL. […] The FFR measured 0.2 cm high and 6.4 cm wide (FIG. 2A-2B). […] Some of the superifical vessels appeared to resolve completely (clinically go away/not visible after treatment) post treatment.

On to `C[C@H](CCC(=O)O)[C@H]1CC[C@H]2[C@@H]3CC[C@@H]4C[C@H](O)CC[C@]4(C)[C@H]3C[C@H](O)[C@]12C` [DCA, 3α,12α-dihydroxy-5β-cholan-24-oic acid], for which the “improvement in visual appearance and degree of protrusion” value (after two series of intralesional DCA, two months after second injection) is “significant improvement”. Moreover, the “duration of moderate post-injection pain, erythema, bruising, and swelling” value (female, human, in vivo) was 24 to 48 h. Also, the “improvement after the first treatment” value (first series, 0.2 mL injections at 1 cm intervals, total 4.4 mL) is reported as “marginal improvement”. Also, where the note is “in vivo”, the skin tension result is listed as “either maintained or enhanced” and the “tolerability of the procedure” value was “tolerated the procedure well”. For the same compound, where the note is “post treatment, some of the vessels, some appeared to resolve completely”, the “visible superficial vessels and telangiectasias in the FFR” value is “decreased in size, caliber, and/or lightened in color”. Moreover, the “FFR height, final measurement post-treatment” value (right flank, after two series of intralesional DCA (4.4 mL, then 4.2 mL 3 months later), two months after second injection, baseline 0.8 cm) is 0.2 cm. Further, the “FFR width, final measurement post-treatment” value (right flank, after two series of intralesional DCA (4.4 mL, then 4.2 mL 3 months later), two months after second injection, baseline 7.5 cm) was found to be 6.4 cm.
